Reference: PubChem BioAssay (NCI)
Where “and” joins values, the source holds several entries; their conditions need not be identical. Equal values may be shown once.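 Method: 48-hour compound exposure of cells in 96-well plates, five concentrations, linear interpolation of endpoints. GI50: concentration for 50% inhibition of growth. TGI marks complete inhibition of growth.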

Legend:
Test in all cases: NCI tumour cell line growth inhibition, 48 h
A549 NSCLC = test system: A549 NSCLC
NCI-H522 lung = test system: NCI-H522 lung
HT29 colon = test system: HT29 colon
IGROV1 ovarian = test system: IGROV1 ovarian
NCI-H23 lung = test system: NCI-H23 lung
HCT-116 colon = test system: HCT-116 colon
SN12C renal = test system: SN12C renal
HOP-92 NSCLC = test system: HOP-92 NSCLC
MDA-MB-435 = test system: MDA-MB-435
UO-31 renal = test system: UO-31 renal

Row | SMILES | TGI (A549 NSCLC) | TGI (NCI-H522 lung) [µM] | TGI (HT29 colon) [µM] | TGI (IGROV1 ovarian) | TGI (NCI-H23 lung) | TGI (HCT-116 colon) [µM] | TGI (SN12C renal) | TGI (HOP-92 NSCLC) | TGI (MDA-MB-435) [µM] | TGI (UO-31 renal) | GI50 (NCI-H23 lung) | GI50 (HOP-92 NSCLC) | GI50 (HT29 colon) [µM] | GI50 (IGROV1 ovarian) [µM] | GI50 (HCT-116 colon) [µM] | GI50 (MDA-MB-435) [µM]
1 | CCCN1C(=O)CN(S(=O)(=O)c2ccc(Cl)cc2)C1=O | > 100 µM | > 100 | > 100 | > 100 µM | > 100 µM | > 100 | > 100 µM | > 100 µM | > 100 | > 100 µM |  |  |  |  |  | 
2 | O[C@@H]1[C@H](OC2c3ccccc3-c3ccccc32)[C@H](OCc2ccccc2)[C@@H]2OC[C@H]1O2 | > 100 µM | > 100 | > 100 | > 100 µM | > 100 µM | > 100 | > 100 µM | > 100 µM | > 100 | > 100 µM |  |  |  |  |  | 
3 | CC1(C)CC(=O)C(C(=O)Nc2cccs2)=C(O)C1 | > 100 µM | > 100 | > 100 | > 100 µM | 95.7 µM | > 100 | > 100 µM | 68.2 µM |  | 81.7 µM |  |  |  |  |  | 
4 | Cc1ccc2c(c1C)CC1(Cc3ccc(C)c(C)c3C1=O)C2=O (stereo not given) | > 100 µM | > 100 |  | > 100 µM |  | > 100 | > 100 µM | 87 µM | > 100 | > 100 µM |  |  |  |  |  | 
5 | COc1ccc(/C=C2\C[C@H]3[C@@H]4CC=C5C[C@@H](O)CC[C@]5(C)[C@H]4CC[C@]3(C)\C2=N\O)cc1 | > 100 µM | 50 | > 100 | 96.2 µM | > 100 µM | 29.3 | 44.4 µM | > 100 µM | > 100 | 71.6 µM |  |  |  |  |  | 
6 | Cc1ccc2c(=O)cc(-c3cc(C)sc3C)[nH]c2n1 | > 39.3 µM | > 22.2 | 32.9 | > 100 µM | > 24 µM | > 69 | > 93.4 µM | > 100 µM | 2.86 | > 100 µM |  |  |  |  |  | 
7 | COC(=O)C1=C(OC)C(=P2(c3ccccc3)CC(c3ccccc3)=C2c2ccccc2)C(C(=O)OC)=C1C(=O)OC (stereo not given) | > 100 µM | 13.6 |  | > 100 µM | > 100 µM | > 100 | > 100 µM |  | > 100 | > 100 µM |  |  |  |  |  | 
8 | C/C=C(/CCC1NCCc2c1[nH]c1ccccc21)[Si](C)(C)C (stereo not given) | > 100 µM and 29.7 µM |  |  | > 100 µM and 21.1 µM | > 100 µM and 25.5 µM |  | > 100 µM and 16.9 µM | 90.1 µM and 11.9 µM |  | > 100 µM and 17.3 µM | 87.1 µM and 11.1 µM | 27 µM and 2.9 µM |  |  |  | 
9 | CCOc1ccc(NC(=O)C(=O)C(/C(=N/N)C(=O)OC)c2nc3ccc([N+](=O)[O-])cc3[nH]c2=O)cc1 (stereo not given) | > 100 µM | > 100 | > 100 | > 100 µM | > 100 µM | > 100 | > 100 µM | > 100 µM | > 100 | > 100 µM |  |  |  |  |  | 
10 | COC(=O)/C(=N\N)C(C(=O)C(=O)Nc1cc(Cl)ccc1Cl)c1nc2ccc([N+](=O)[O-])cc2[nH]c1=O (stereo not given) | > 100 µM | > 100 | > 100 | > 100 µM | > 100 µM | > 100 | > 100 µM | > 100 µM | > 100 | > 100 µM |  |  |  |  |  | 
11 | Cc1cccc(C)c1NC(=O)C(=O)CC(=O)c1sc(Nc2c(C)cccc2C)nc1C | > 100 µM | > 100 | > 100 | > 100 µM | > 100 µM | > 100 | > 100 µM | > 100 µM | > 100 | > 100 µM |  |  |  |  |  | 
12 | COC(=O)/C=C1\C(CO[Si](C)(C)C(C)(C)C)OC(n2ccc(=O)[nH]c2=O)C1O (stereo not given) | 82.9 µM |  | 80.5 | > 75.2 µM | 55.3 µM | 16.9 | > 54.4 µM | 44 µM | > 43 | 29.6 µM |  |  |  |  |  | 
13 | C=C1CC[C@@H]2[C@](C)(COC(=O)CCC(=O)OC)CCC[C@@]2(C)[C@@H]1CCC1=CC(=O)OC1 | > 100 µM | > 100 | > 100 | > 100 µM | > 100 µM | > 100 | > 100 µM |  | > 100 | > 100 µM |  |  |  |  |  | 
14 | COC(=O)c1ccc(CCC2=CC(=O)C=CC2=O)cc1 | 60.5 µM | 3.14 | 53.4 | 30.2 µM | 39.4 µM | 25.9 | > 55.9 µM | 25.1 µM | 28 | 19.9 µM |  |  |  |  |  | 
15 | COC(=O)C1CC2CC1C1C2SC(F)(F)C1(F)F (stereo not given) | > 100 µM | > 100 |  | > 100 µM |  | > 100 | > 100 µM |  | > 100 | > 100 µM |  |  |  |  |  | 
16 | CCc1nc(N)nc(N)c1-c1ccc(N2CCOCC2)c(N=[N+]=[N-])c1 | > 100 µM | 37.9 | > 100 | > 100 µM | > 83.7 µM | > 100 | > 100 µM | > 100 µM | > 100 | > 100 µM |  |  |  |  |  | 
17 | CCOC(=O)c1c(Cl)c2c(n1Cc1ccccc1)-c1oncc1CCC2 |  |  | 8.52 | > 100 µM |  | > 100 |  |  | 4.92 |  |  |  | 2.95 | 4.39 | 4.02 | 1.4
18 | N#CCc1nc(-c2cc3ccccc3oc2=O)cs1 | > 100 µM | > 100 | > 100 | > 100 µM |  | > 100 | > 100 µM | > 100 µM | > 100 | > 100 µM |  |  |  |  |  | 
19 | COc1ccc(OC/C(N)=N/NC(=O)c2ccncc2)cc1 | > 100 µM | > 100 | > 100 | > 100 µM | > 100 µM | > 100 | > 100 µM | > 100 µM | > 100 |  |  |  |  |  |  | 
20 | CCOC(=O)c1cn(-c2ccc([N+](=O)[O-])cc2)c(=S)n2c1nc1ccccc12 | > 100 µM |  | > 100 | > 100 µM | > 100 µM | > 100 | > 100 µM | 57.1 µM | > 100 | 4.64 µM |  |  |  |  |  | 
21 | CN(/N=C/c1ccccn1)C1=NCCN1 | > 100 µM | > 100 | > 100 | > 100 µM | > 100 µM | > 100 |  | > 100 µM | > 100 | > 100 µM |  |  |  |  |  | 
22 | CC(C)(C)C1CC[C@H]2c3c([nH]c4ccccc34)[C@H]3C(=O)N(c4ccc(F)cc4)C(=O)[C@H]3[C@H]2C1 (stereo not given in full) | 26.1 µM | 25.3 |  | 35.3 µM | 33.4 µM | 25 | 23.6 µM | 48.1 µM |  | 29.7 µM |  |  |  |  |  | 
